Where “and” joins values, the source holds several entries; their conditions need not be identical. Identical values can stand only once. Entries after “also recorded” stand apart in the source; their conditions may differ. Counter-ions that a name gives are not always drawn. Like-named read-outs stand apart in the source and are kept apart here.
Tests used:
[1] = test system: agitated subjects with senile dementia of Alzheimer's type; conditions: for RASS score: per subject
Description: Clinical evaluation was performed as follows. Patients were screened up to 4 weeks prior to randomization. After obtaining the written informed consent from subjects, subjects were allowed to participate in the study related screening activities. Screening activities included clinical laboratory tests, physical examination, ECG, etc. After completion of all screening related activities, the eligible subjects [male and female subjects 55 to 75 years of age; known cases of mild probable Alzheimer's disease (SDAT) in accordance with NINCDS/ADRDA criteria for diagnosis of Alzheimer's disease with a Mini-Mental State Score of between 20 to 24; RASS score of +1 or +2 on the Day −1 and prior to drug administration on Day 1] were randomized in the study (treatment allocation 5:2). Subjects were housed in the clinic from Day −1 (preferably in the afternoon or evening) to end of study. Additional housing was allowed performed based on the investigator's discretion.
Study drug IV infusion was to be stopped at any time if any of the following occurred: • There was more than 20 mm Hg decrease in systolic or diastolic blood pressure. • There was an isolated drop in Systolic BP<100 mm of Hg. • There was an isolated drop Diastolic BP<60 mm of Hg. • There was a decrease in heart rate of 20 beats per minute or a drop below 50 beats per minute. • Attainment of a RASS of −1 at the end of each 30 minutes infusion period.
All raters were trained in the use of the RASS scale.
Once the participant was drowsy but able to respond to verbal stimulation, the infusion was stopped, and time was recorded.

[2] = test system: agitated subjects with senile dementia of Alzheimer's type; conditions: human, in vivo
Description: Clinical assessments of cognitive functioning, alertness/awareness, balance and reaction time were performed prior to the IV infusion, at the end of infusion until the participant had reached their baseline parameters or, in the judgment of the principal investigator, the participant had reached a stable and acceptable level of arousal.
Time period at which clinical assessment of cognitive functioning, alertness/awareness, balance, and reaction time persist after drowsiness has resolved was assessed. Cognitive functioning, alertness/awareness, balance, and reaction time reached to their baseline level within around 45 minutes after drowsiness was resolved/recovered (see Table 7).

[3] = test system: healthy, elderly (55-75 years of age) volunteers
Description: Subjects in the initial cohorts were initially healthy, elderly (55-75 years of age) volunteers. Subjects in later cohort were elderly volunteers healthy except for having mild probable SDAT. Both sexes were included in all cohorts.
Each infusion rate was administered for 30 minutes. After 30 minutes, the dose was increased by an additional 0.1 mcg/kg/hr until the subject achieved a predetermined level of sedation as assessed by the Richmond Agitation-Sedation Scale (RASS) or a pre-specified reduction in BP and/or HR. The dosing rate was adjusted for subsequent cohorts based on the results of preceding cohorts. Continuous assessment was made of the level of arousal, BP and HR. […] Statistics were descriptive and correlational in terms of pharmacodynamic and pharmacokinetic relationships.
The participants in cohort 1 were designated by subject codes 11XX and 91XX, and those in cohort 2 were designated by subject codes 12XX. Time needed to resolve refers to the time from the cessation of the infusion to the resolution of the pharmacodynamic effect of the drug on either arousal or blood pressure and heart rate.

[4] = test system: subjects suffering from schizophrenia
Description: The level of agitation in subjects may be assessed herein using the PEC (Positive and Negative Symptom Scale—Excitatory Component) scale, which is a known five item scale that measures symptoms of agitation, namely excitement, tension, hostility, uncooperativeness, and poor impulse control, with each item rated from 1 (absent) to 7 (extremely severe). Combined scores range from 5 to 35. A score of 20 or more corresponds to severe agitation.

[5] = Opioid withdrawal Study
Description: Additional Assessment Included: • 1. Hematological and blood chemistry, urinalysis • 2. Physical examination • 3. Standard of care detoxification treatment (ancillary medications) to alleviate symptoms of acute withdrawal to ensure safe discharge from study site. • 4. Adverse event reporting

clinical = conditions: human, in vivo; for concentration at 15 min / concentration at 30 min / concentration at 90 min / concentration at 45 min / concentration at 60 min / concentration at 75 min: Plasma level concentration

SMILES: Cc1cccc([C@H](C)c2cnc[nH]2)c1C [dexmedetomidine hydrochloride]
- Efficacy (Primary/secondary end points): subjects reaching RASS-1 ([1]; Alzheimer's Study): 7/10 RASS-1
- Range of efficacious dose of IV dexmedetomidine hydrochloride ([1]; Alzheimer's Study, continuous infusion): 0.2 to 0.5 µg/kg/h
- time after infusion discontinuation at which subjects became alert and remained calm ([1]; SDAT): around 30 minutes
- IV infusion rate, range ([1]; SDAT patients): 0.2 to 0.5 µg/kg/h
- RASS score ([1]; SDAT patients, 00:00 Hr, listed as Treatment): 2 (5×) and 1 (5×)
- RASS score ([1]; SDAT patients, 02:30 Hr): 1
- Total dose, range ([1]; SDAT, extent of exposure): 0.15 to 0.75 µg/kg
- Time period for which a calming effect persisted after discontinuation of study drug ([1]; SDAT, n=7): 5 min
- Time period for which a calming effect persisted after discontinuation of study drug, Max ([1]; SDAT, n=7): 45 min
- Time period for which a calming effect persisted after discontinuation of study drug, Mean ± SD ([1]; SDAT, n=7): 28.6 ± 15.74 min
- Time period for which a calming effect persisted after discontinuation of study drug, Median ([1]; SDAT, n=7): 30 min
- optimal dose at which a RASS score of −1 was achieved, Max ([1]; SDAT, n=7): 0.5 µg/kg/h
- optimal dose at which a RASS score of −1 was achieved, Mean ± Sd (mean infusion rate) ([1]; SDAT, n=7): 0.34 µg/kg/h
- optimal dose at which a RASS score of −1 was achieved, Median ([1]; SDAT, n=7): 0.30 µg/kg/h
- optimal dose at which a RASS score of −1 was achieved, Min ([1]; SDAT, n=7): 0.2 µg/kg/h
- optimal dose at which a RASS score of −1 was achieved, Mode ([1]; SDAT, n=7): 0.30 µg/kg/h
- optimal dose at which a RASS score of −1 was achieved, Mean ± Sd (mean infusion rate) ([1]; SDAT, n=7, listed as Test): 0.34 ± 0.098 µg/kg/h
- optimal dose at which a RASS score of −1 was achieved, Mean ± Sd (mean infusion rate) ([1]; SDAT, n=7, listed as dexmedetomidine): 0.34 µg/kg/h
- subjects who achieved a RASS score of −1 ([1]; SDAT, out of 10 subjects): 7
- Time for cognitive functioning, alertness/awareness, balance, reaction time to reach baseline after drowsiness [2]: 10 min
- Time for cognitive functioning, alertness/awareness, balance, reaction time to reach baseline after drowsiness, Max [2]: 90 min
- Time for cognitive functioning, alertness/awareness, balance, reaction time to reach baseline after drowsiness, Mean ± SD [2]: 42.9 ± 27.36 min
- Time for cognitive functioning, alertness/awareness, balance, reaction time to reach baseline after drowsiness, Median [2]: 45 min
- time for cognitive functioning, alertness/awareness, balance, reaction time to reach baseline level after drowsiness resolved [2]: ≤ 45 min
- time to mild sedation after starting the dose which produced the desired effect ([3]; Example 1A): ≤ 30 min
- subjects in whom mild sedation (RASS score of −1) was evident ([3]; Example 1A, IV infusion 0.1-0.6 mcg/kg/hr): 11/12
- Efficacy (Primary/secondary end points): subjects reaching RASS-1 ([3]; Healthy Volunteers Cohort 1): 6/6 RASS-1
- Range of efficacious dose of IV dexmedetomidine hydrochloride ([3]; Healthy Volunteers Cohort 1, continuous infusion): 0.3 to 0.5 µg/kg/h
- Efficacy (Primary/secondary end points): subjects reaching RASS-1 ([3]; Healthy Volunteers Cohort 2): 5/6 RASS-1
- Range of efficacious dose of IV dexmedetomidine hydrochloride ([3]; Healthy Volunteers Cohort 2, continuous infusion): 0.3 to 0.4 µg/kg/h
- Endpoint ([3]; healthy elderly volunteers, per subject, endpoint/stopping criterion reached): RASS −2; also recorded: RASS −1
- IV infusion rate at which desired effect/stopping criteria achieved ([3]; healthy elderly volunteers, per subject, rate raised every 30 min): 0.3 mcg/kg/hr (4×) and 0.4 mcg/kg/hr (7×) and 0.5 mcg/kg/hr
- effects on blood pressure and/or heart rate at exposure achieving mild sedation ([3]; in vivo): did not produce clinically meaningful effects on blood pressure and/or heart rate
- tolerability ([3]; in vivo): well-tolerated
- dose required by males compared to females ([3]; p<0.02, Sign test): twice
- optimal starting dose ([3]; results of cohorts 1 and 2): 0.3 µg/kg/h
- PEC values after infusion start ([4]; Patient No. 1, treatment arm, 0 min): 9
- PEC values after infusion start ([4]; Patient No. 1, treatment arm, 15 min): 5
- PEC values after infusion start ([4]; Patient No. 2, treatment arm, 0 min): 16
- PEC values after infusion start ([4]; Patient No. 2, treatment arm, 15 min): 13
- PEC values after infusion start ([4]; Patient No. 2, treatment arm, 30 min): 12
- PEC values after infusion start ([4]; Patient No. 2, treatment arm, 45 min): 11
- PEC values after infusion start ([4]; Patient No. 2, treatment arm, 60 min): 9
- PEC values after infusion start ([4]; Patient No. 2, treatment arm, 75 min): 7
- PEC values after infusion start ([4]; Patient No. 3, treatment arm, 0 min): 12
- PEC values after infusion start ([4]; Patient No. 3, treatment arm, 15 min): 12
- PEC values after infusion start ([4]; Patient No. 3, treatment arm, 30 min): 10
- PEC values after infusion start ([4]; Patient No. 3, treatment arm, 45 min): 7
- PEC values after infusion start ([4]; Patient No. 3, treatment arm, 60 min): 6
- PEC values after infusion start ([4]; Patient No. 4, treatment arm, 0 min): 9
- PEC values after infusion start ([4]; Patient No. 4, treatment arm, 15 min): 9
- PEC values after infusion start ([4]; Patient No. 4, treatment arm, 30 min): 8
- PEC values after infusion start ([4]; Patient No. 4, treatment arm, 45 min): 8
- PEC values after infusion start ([4]; Patient No. 4, treatment arm, 60 min): 7
- PEC values after infusion start ([4]; Patient No. 4, treatment arm, 75 min): 7
- PEC values after infusion start ([4]; Patient No. 4, treatment arm, 90 min): 7
- PEC values after infusion start ([4]; Patient No. 4, treatment arm, […]): 7
- PEC values after infusion start ([4]; Patient No. 11, treatment arm, 0 min): 13
- PEC values after infusion start ([4]; Patient No. 11, treatment arm, 15 min): 13
- PEC values after infusion start ([4]; Patient No. 11, treatment arm, 30 min): 11
- PEC values after infusion start ([4]; Patient No. 11, treatment arm, 45 min): 9
- PEC values after infusion start ([4]; Patient No. 11, treatment arm, 60 min): 9
- PEC values after infusion start ([4]; Patient No. 11, treatment arm, 75 min): 7
- PEC values after infusion start ([4]; Patient No. 12, treatment arm, 0 min): 13
- PEC values after infusion start ([4]; Patient No. 12, treatment arm, 15 min): 13
- PEC values after infusion start ([4]; Patient No. 12, treatment arm, 30 min): 13
- PEC values after infusion start ([4]; Patient No. 12, treatment arm, 45 min): 10
- PEC values after infusion start ([4]; Patient No. 12, treatment arm, 60 min): 10
- PEC values after infusion start ([4]; Patient No. 12, treatment arm, 75 min): 8
- PEC values after infusion start ([4]; Patient No. 12, treatment arm, 90 min): 6
- PEC values after infusion start ([4]; Patient No. 12, treatment arm, […]): 5
- PEC values after infusion start ([4]; Patient No. 14, treatment arm, 0 min): 10
- PEC values after infusion start ([4]; Patient No. 14, treatment arm, 15 min): 9
- PEC values after infusion start ([4]; Patient No. 14, treatment arm, 30 min): 6
- PEC values after infusion start ([4]; Patient No. 14, treatment arm, 45 min): 6
- PEC values after infusion start ([4]; Patient No. 14, treatment arm, 60 min): 5
- PEC values after infusion start ([4]; Patient No. 14, treatment arm, 75 min): 5
- PEC values after infusion start ([4]; Patient No. 16, treatment arm, 0 min): 10
- PEC values after infusion start ([4]; Patient No. 16, treatment arm, 15 min): 9
- PEC values after infusion start ([4]; Patient No. 16, treatment arm, 30 min): 6
- PEC values after infusion start ([4]; Patient No. 16, treatment arm, 45 min): 6
- PEC values after infusion start ([4]; Patient No. 16, treatment arm, 60 min): 7
- PEC values after infusion start ([4]; Patient No. 16, treatment arm, 75 min): 5
- PEC values after infusion start ([4]; Patient No. 17, treatment arm, 0 min): 10
- PEC values after infusion start ([4]; Patient No. 17, treatment arm, 15 min): 8
- PEC values after infusion start ([4]; Patient No. 17, treatment arm, 30 min): 7
- PEC values after infusion start ([4]; Patient No. 17, treatment arm, 45 min): 5
- Efficacy (Primary/secondary end points): subjects with PEC score below 7 ([4]; Schizophrenia Study): 9/10 PEC score
- patients in the treatment arm with agitation reduced to a minimum (PEC score of 7 or below) ([4]; schizophrenia): 9 out of 10
- adverse events [5]: No adverse event was reported
- Cmax (clinical): 0.0225 to 0.406 ng/mL
- concentration at 15 min (clinical; Patient 1, Treatment, 15 min of infusion): 0.0225 ng/mL
- concentration at 30 min (clinical; Patient 1, Treatment): 0.0147 ng/mL
- concentration at 90 min (clinical; Patient 4, Treatment): 0.0443 ng/mL
- concentration at 15 min (clinical; Patient 11, Treatment, 15 min): 0.041 ng/mL
- concentration at 30 min (clinical; Patient 11, Treatment): 0.0629 ng/mL
- concentration at 45 min (clinical; Patient 11, Treatment): 0.124 ng/mL
- concentration at 60 min (clinical; Patient 11, Treatment): 0.15 ng/mL
- concentration at 30 min (clinical; Patient 12, Treatment): 0.0449 ng/mL
- concentration at 45 min (clinical; Patient 12, Treatment): 0.0505 ng/mL
- concentration at 60 min (clinical; Patient 12, Treatment): 0.109 ng/mL
- concentration at 75 min (clinical; Patient 12, Treatment): 0.159 ng/mL
- concentration at 90 min (clinical; Patient 12, Treatment): 0.238 ng/mL
- concentration at 30 min (clinical; Patient 14, Treatment): 0.0527 ng/mL
- concentration at 45 min (clinical; Patient 14, Treatment): 0.0465 ng/mL
- concentration at 60 min (clinical; Patient 14, Treatment): 0.406 ng/mL
- concentration at 15 min (clinical; Patient 16, Treatment, 15 min): 0.00256 ng/mL
- concentration at 30 min (clinical; Patient 16, Treatment): 0.0156 ng/mL
- concentration at 45 min (clinical; Patient 16, Treatment): 0.0412 ng/mL
- concentration at 60 min (clinical; Patient 16, Treatment): 0.0679 ng/mL
- concentration at 75 min (clinical; Patient 16, Treatment): 0.0723 ng/mL
- concentration at 15 min (clinical; Patient 17, Treatment, 15 min): 0.0159 ng/mL
- concentration at 45 min (clinical; Patient 17, Treatment): 0.0399 ng/mL
- concentration at 15 min (clinical; Patient 18, Treatment, 15 min): 0.0484 ng/mL
- concentration at 30 min (clinical; Patient 18, Treatment): 0.0545 ng/mL

Source: patent US20210267944A1 (BioXcel Therapeutics, Inc., priority 2018, published 2021)
